Like-named read-outs stand apart in the source and are kept apart here.
Assays:
[1] = molecular target: T1, Human soluble guanylate cyclase enzyme (hsGC) (Homo sapiens, UniProt Q02108+Q02153); assay: Purified human sGC enzyme synergy assay in the presence of 1 μM sodium nitroprusside (SNP); format: biochemical; conditions: compound at 30 μM, presence of 1 μM SNP
T1 construct: purchased Enzo Inc. ALX-201-177
T1 sequence (Q02153 1-619): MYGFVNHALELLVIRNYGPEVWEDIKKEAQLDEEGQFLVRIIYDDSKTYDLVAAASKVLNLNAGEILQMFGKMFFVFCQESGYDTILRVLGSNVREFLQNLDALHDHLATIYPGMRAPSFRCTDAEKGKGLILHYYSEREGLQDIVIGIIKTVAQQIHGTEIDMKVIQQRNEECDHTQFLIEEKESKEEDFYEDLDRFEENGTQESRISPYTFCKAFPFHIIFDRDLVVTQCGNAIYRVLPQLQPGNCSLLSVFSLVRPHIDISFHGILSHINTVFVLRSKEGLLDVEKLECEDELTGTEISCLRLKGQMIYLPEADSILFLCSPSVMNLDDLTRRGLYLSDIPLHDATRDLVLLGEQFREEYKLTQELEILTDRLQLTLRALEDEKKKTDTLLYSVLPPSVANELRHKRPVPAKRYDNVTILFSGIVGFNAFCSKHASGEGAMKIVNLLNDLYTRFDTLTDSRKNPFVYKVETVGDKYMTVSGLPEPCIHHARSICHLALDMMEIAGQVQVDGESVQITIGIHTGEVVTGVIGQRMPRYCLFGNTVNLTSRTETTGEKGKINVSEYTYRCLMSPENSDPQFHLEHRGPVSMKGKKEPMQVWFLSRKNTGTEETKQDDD
T1 sequence (Q02108 1-690): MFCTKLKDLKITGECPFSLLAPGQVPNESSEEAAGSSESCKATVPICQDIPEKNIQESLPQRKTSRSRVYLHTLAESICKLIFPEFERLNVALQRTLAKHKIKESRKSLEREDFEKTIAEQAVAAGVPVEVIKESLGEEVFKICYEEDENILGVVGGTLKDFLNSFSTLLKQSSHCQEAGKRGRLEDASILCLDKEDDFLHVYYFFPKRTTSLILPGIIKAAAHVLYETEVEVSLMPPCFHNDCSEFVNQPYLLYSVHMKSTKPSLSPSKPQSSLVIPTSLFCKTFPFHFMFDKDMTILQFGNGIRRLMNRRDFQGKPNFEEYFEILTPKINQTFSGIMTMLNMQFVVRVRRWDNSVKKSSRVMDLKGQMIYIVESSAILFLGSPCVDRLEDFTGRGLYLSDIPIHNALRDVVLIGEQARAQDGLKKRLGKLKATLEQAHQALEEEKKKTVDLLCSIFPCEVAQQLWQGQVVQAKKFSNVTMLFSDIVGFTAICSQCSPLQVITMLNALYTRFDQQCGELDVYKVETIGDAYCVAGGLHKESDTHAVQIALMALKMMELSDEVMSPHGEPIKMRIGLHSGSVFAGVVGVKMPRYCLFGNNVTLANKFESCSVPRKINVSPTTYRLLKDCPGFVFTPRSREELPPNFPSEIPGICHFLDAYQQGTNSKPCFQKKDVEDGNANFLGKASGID
Protocol: (§1) Human soluble guanylate cyclase enzyme (hsGC) obtained from Enzo Inc. (P/N: ALX-201-177) was used to evaluate the activity of test compounds. The assay reactions contained 0.1 M Tris (pH 8.0), 0.5 mg/mL BSA (pH 8.0), 2 mM DTT, 2 mM MgCl2, 300 μM GTP, 1 mM 3-isobutyl-1-methylxanthine (IBMX) and 5 ng human soluble guanylate cyclase enzyme. Test compounds in DMSO were then added (2 μL, 10 or 30 μM final concentration) and incubated (200 μL, 96-well plate format) at 37° C. for 30 minutes. The controls were carried out using 2 μL DMSO. After the 30 minute incubation, the reaction was stopped with the addition of 200 μl of cold methanol. The plate was then centrifuged at 3,200 rpm for 10 minutes at room temperature. Supernatants (200 μL) were collected and transferred to a new 96 well plate for analysis.
(§2) An 8 point cGMP (Sigma-Aldrich P/N: G6129) standard curve was prepared in assay buffer ranging from 0.156-20 μM. Samples for the cGMP standard curve were then diluted with an equal volume of methanol resulting in final cGMP concentrations of 0.078-10 μM.
(§3) The cGMP standard curve was generated using GraphPad Prism Software.
(§4) Calculations: Specific Activity was determined by the amount of cGMP formed (nmoles) per mg of sGC per min. Enzyme “fold-change” was calculated by dividing Specific Activity for test compounds by Specific Activity of DMSO controls.
Biological Measurement by the Purified Human sGC Enzyme Synergy Performed in the Presence of Sodium Nitroprusside (SNP), a Nitric Oxide Donor
Enzyme assays were performed as described above, but was done in the absence or presence of 1 μM sodium nitroprusside (SNP).

[2] = molecular target: T1, Human soluble guanylate cyclase enzyme (hsGC); assay: Purified human sGC enzyme activity assay (without SNP); format: biochemical; conditions: compound at 30 μM, absence of SNP, fold over DMSO control
Protocol: Biological Activity Measurements by the Purified Human sGC Enzyme Activity Assay
as §1, §2, §3, §4

[3] = molecular target: T2, soluble guanylate cyclase (sGC) (Homo sapiens, UniProt Q02108+Q02153); assay: sGC-HEK-cGMP assay (run with SNP incubation); format: cell-based; conditions: for Emax: 10 μM SNP, 100% = 30 μM BAY 41-2272 with 10 μM SNP, read-out: HEK assay Emax-unconstrained (Percent); for HEK MEC-10: concentration that would elicit 10% of the Emax in the presence of 10 μM SNP; for EC50: in the presence of 10 μM SNP
T2 construct: endogenously expressing soluble guanylate cyclase (sGC); endogenous in cells; host or cells: HEK293
T2 sequence (Q02153 1-619): T1 sequence (Q02153 1-619)
T2 sequence (Q02108 1-690): T1 sequence (Q02108 1-690)
How it was run: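 HEK293 cells with endogenous sGC were pre-treated 15 min at 37 °C with 0.5 mM IBMX, then exposed to test compound plus sodium nitroprusside for 10 min at 37 °C. Cells were lysed in 0.1 M HCl (4 °C, 30 min), and cGMP was quantified by LC/MS against a standard curve. EC50 values came from concentration-response curves.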

[4] = Table 3A, top of concentration-response curve not fitted to 100%
[5] = Table 3D, read-out: HEK assay EC50
[6] = top of concentration-response curve not fitted to 100%, Table 3D, read-out: HEK assay EC50-unconstrained
[7] = Table 3B, top of concentration-response curve not fitted to 100%
[8] = Table 3E, read-out: HEK assay EC50
[9] = top of concentration-response curve not fitted to 100%, Table 3E, read-out: HEK assay EC50-unconstrained

Row | Compound | Enzyme Activity (increase at 30 μM with SNP) ([1]; Table 5A) | Enzyme Activity (increase at 30 μM without SNP) ([2]; Table 5A) | Emax [3, 4] [%] | HEK MEC-10 ([3]; Table 3D) | EC50 [3, 5] [µM] | EC50 [3, 6] [µM] | Enzyme Activity (increase at 30 μM with SNP) ([1]; Table 5B) | Enzyme Activity (increase at 30 μM without SNP) ([2]; Table 5B) | Emax [3, 7] [%] | HEK MEC-10 ([3]; Table 3E) | EC50 [3, 8] [µM] | EC50 [3, 9] [µM]
1 | Oc1nc(-c2cc(-c3nccs3)n(Cc3ccccc3F)n2)ncc1F [Compound 44] | D (10 or <20 fold increase) | B (2 to <5 fold increase) | 40 to 60 | C (0.1 to <1 μM) | < 20 | 0.01 to 0.5 |  |  |  |  |  | 
2 | Oc1nc(-c2cc(-c3ccon3)n(Cc3ccccc3F)n2)ncc1-c1ccsc1 [Compound 45] | B (2 to <5 fold increase) | A (no increase to <2 fold increase) | 10 to 20 | E (10 to 50 μM) | 100 to 300 | 5 to 10 |  |  |  |  |  | 
3 | Fc1ccccc1Cn1nc(-c2ncc(Br)c(Cl)n2)cc1-c1ccon1 [Compound 52] | D (10 or <20 fold increase) | B (2 to <5 fold increase) | 40 to 60 | D (1 to <10 μM) | 60 to 100 | 10 to 50 |  |  |  |  |  | 
4 | CC(C)(CC(F)(F)F)C(=O)Nc1cnc(-c2cc(-c3ccon3)n(Cc3ccccc3F)n2)nc1N [Compound 53] | E (20 to 30 fold increase) | C (5 to <10 fold increase) | 60 to 80 | C (0.1 to <1 μM) | < 20 | 1 to 5 |  |  |  |  |  | 
5 | O=c1[nH]c(-c2cc(-c3ccon3)n(Cc3ccccc3F)n2)nc(Cl)c1Cl [Compound 54] | C (5 to <10 fold increase) | A (no increase to <2 fold increase) | 40 to 60 | D (1 to <10 μM) | 40 to 60 | 5 to 10 |  |  |  |  |  | 
6 | CC1(C(=O)Nc2cnc(-c3cc(-c4ncco4)n(Cc4ccccc4F)n3)nc2N)CC1(F)F (stereo not shown) [Compound 55] | F (>30 fold increase) | C (5 to <10 fold increase) | 100 to 120 | C (0.1 to <1 μM) | < 20 | 1 to 5 |  |  |  |  |  | 
7 | NNc1nc(-c2cc(-c3ccon3)n(Cc3ccccc3F)n2)ncc1F [Compound 56] | D (10 or <20 fold increase) | C (5 to <10 fold increase) | 60 to 80 | B (0.01 to <0.1 μM) | < 20 | 0.5 to 1 |  |  |  |  |  | 
8 | CCCCCCCCCCC(=O)Nc1cnc(-c2cc(-c3ccon3)n(Cc3ccccc3F)n2)nc1N [Compound 58] | B (2 to <5 fold increase) | A (no increase to <2 fold increase) |  | E (10 to 50 μM) | 600 to 900 |  |  |  |  |  |  | 
9 | O=c1[nH]c(-c2cc(-c3ccon3)n(Cc3ccccc3F)n2)ncc1S(=O)(=O)N1CCOCC1 [Compound 60] | D (10 or <20 fold increase) | B (2 to <5 fold increase) | 80 to 100 | C (0.1 to <1 μM) | < 20 | 0.5 to 1 |  |  |  |  |  | 
10 | O=c1[nH]c(-c2cc(-c3ccon3)n(Cc3cccnc3F)n2)ncc1F [Compound 67] | B (2 to <5 fold increase) | A (no increase to <2 fold increase) | 20 to 40 | B (0.01 to <0.1 μM) | 40 to 60 | 0.01 to 0.5 |  |  |  |  |  | 
11 | O=c1[nH]c(-c2cc(-c3ccccn3)n(Cc3ccccc3F)n2)ncc1F [Compound 68] |  |  |  |  |  |  | C (5 to <10 fold increase) | A (no increase to <2 fold increase) | 40 to 60 | D (1 to <10 μM) | 40 to 60 | 5 to 10
12 | Nc1nc(-c2cc(-c3ccon3)n(Cc3ccccc3F)n2)ncc1NC(=O)C1(N)CC1 [Compound 69] |  |  |  |  |  |  | D (10 or <20 fold increase) | B (2 to <5 fold increase) | 80 to 100 | A (0.001 to <0.01 μM) | 60 to 100 | 0.5 to 1
13 | O=c1[nH]c(-c2cc(-c3ccon3)n(Cc3ccc(F)cc3F)n2)ncc1F [Compound 70] |  |  |  |  |  |  | D (10 or <20 fold increase) | C (5 to <10 fold increase) | 40 to 60 | C (0.1 to <1 μM) | 40 to 60 | 0.01 to 0.5

Reference: patent US20150342954A1, “2-BENZYL, 3-(PYRIMIDIN-2-YL) SUBSTITUTED PYRAZOLES USEFUL AS SGC STIMULATORS” (IRONWOOD PHARMACEUTICALS, INC., priority 2011, published 2015)
